Measured values taken from PubChem BioAssay (NCI).
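Values below derive from 48-hour exposures of cells grown in 96-well plates, with endpoints linearly interpolated between the two concentrations bracketing the appropriate inhibition level. GI50: concentration for 50% inhibition of growth. TGI is the concentration that stops growth completely.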

Columns and labels:
Assay in all cases: DTP human tumour cell line panel, 48 h
OVCAR-8 ovarian = system: OVCAR-8 ovarian
SK-OV-3 ovarian = system: SK-OV-3 ovarian
OVCAR-5 ovarian = system: OVCAR-5 ovarian
PC-3 prostate = system: PC-3 prostate
SR leukemia = system: SR leukemia
SNB-75 CNS = system: SNB-75 CNS
UO-31 renal = system: UO-31 renal
HL-60(TB) leukemia = system: HL-60(TB) leukemia
SNB-19 CNS = system: SNB-19 CNS
COLO 205 colon = system: COLO 205 colon
RXF 393 renal = system: RXF 393 renal
BT-549 breast = system: BT-549 breast
HS 578T breast = system: HS 578T breast
MOLT-4 leukemia = system: MOLT-4 leukemia
HT29 colon = system: HT29 colon
KM12 colon = system: KM12 colon
HCT-15 colon = system: HCT-15 colon
CCRF-CEM leukemia = system: CCRF-CEM leukemia
UACC-257 melanoma = system: UACC-257 melanoma
HCT-116 colon = system: HCT-116 colon
SW-620 colon = system: SW-620 colon
OVCAR-4 ovarian = system: OVCAR-4 ovarian
SF-295 CNS = system: SF-295 CNS
NCI-H522 lung = system: NCI-H522 lung
DU-145 prostate = system: DU-145 prostate
MALME-3M melanoma = system: MALME-3M melanoma
ACHN renal = system: ACHN renal
UACC-62 melanoma = system: UACC-62 melanoma
A498 renal = system: A498 renal
MDA-MB-231 breast = system: MDA-MB-231 breast
K-562 leukemia = system: K-562 leukemia
T-47D breast = system: T-47D breast
M14 melanoma = system: M14 melanoma
NCI-H23 lung = system: NCI-H23 lung
SN12C renal = system: SN12C renal
SK-MEL-28 melanoma = system: SK-MEL-28 melanoma
NCI/ADR-RES ovarian = system: NCI/ADR-RES ovarian
U251 CNS = system: U251 CNS
SK-MEL-2 melanoma = system: SK-MEL-2 melanoma
OVCAR-3 ovarian = system: OVCAR-3 ovarian
RPMI-8226 leukemia = system: RPMI-8226 leukemia
TK-10 renal = system: TK-10 renal
HOP-62 NSCLC = system: HOP-62 NSCLC
SF-539 CNS = system: SF-539 CNS
SK-MEL-5 melanoma = system: SK-MEL-5 melanoma
A549 NSCLC = system: A549 NSCLC
HCC-2998 colon = system: HCC-2998 colon
786-0 renal = system: 786-0 renal
NCI-H226 lung = system: NCI-H226 lung
SF-268 CNS = system: SF-268 CNS
CAKI-1 renal = system: CAKI-1 renal
IGROV1 ovarian = system: IGROV1 ovarian
NCI-H460 lung = system: NCI-H460 lung
HOP-92 NSCLC = system: HOP-92 NSCLC
LOX IMVI melanoma = system: LOX IMVI melanoma
MDA-MB-435 = system: MDA-MB-435
MCF7 breast = system: MCF7 breast

COc1ccc(OC)c(N(CCN2C(=O)c3ccccc3C2=O)C(=O)CCl)c1
GI50 (OVCAR-8 ovarian): 7.5 µM | TGI (OVCAR-8 ovarian): 46.3 µM | GI50 (SK-OV-3 ovarian): 0.688 µM | TGI (SK-OV-3 ovarian): 2.05 µM | GI50 (OVCAR-5 ovarian): 1.42 µM | TGI (OVCAR-5 ovarian): 15.8 µM | GI50 (PC-3 prostate): 14 µM | TGI (PC-3 prostate): 67 µM | GI50 (SR leukemia): 0.119 µM | GI50 (SNB-75 CNS): 0.288 µM | TGI (SNB-75 CNS): 1.22 µM | GI50 (UO-31 renal): 0.0667 µM | TGI (UO-31 renal): 0.154 µM | GI50 (HL-60(TB) leukemia): 0.202 µM | TGI (HL-60(TB) leukemia): 0.411 µM | GI50 (SNB-19 CNS): 30.4 µM | TGI (SNB-19 CNS): > 100 µM | GI50 (COLO 205 colon): 13.5 µM | TGI (COLO 205 colon): 29.3 µM | GI50 (RXF 393 renal): 0.615 µM | TGI (RXF 393 renal): 12.6 µM | GI50 (BT-549 breast): 17.9 µM | TGI (BT-549 breast): 46.7 µM | GI50 (HS 578T breast): 13.7 µM | TGI (HS 578T breast): 68.9 µM | GI50 (MOLT-4 leukemia): 10.3 µM | TGI (MOLT-4 leukemia): 37.7 µM | GI50 (HT29 colon): 0.497 µM | TGI (HT29 colon): 2.15 µM | GI50 (KM12 colon): 0.617 µM | TGI (KM12 colon): 5.17 µM | GI50 (HCT-15 colon): 11.6 µM | TGI (HCT-15 colon): > 54.6 µM | GI50 (CCRF-CEM leukemia): 0.229 µM | TGI (CCRF-CEM leukemia): 0.542 µM | GI50 (UACC-257 melanoma): 20.7 µM | TGI (UACC-257 melanoma): 88 µM | GI50 (HCT-116 colon): 17.7 µM | TGI (HCT-116 colon): 59.5 µM | GI50 (SW-620 colon): 15.3 µM | TGI (SW-620 colon): > 58.5 µM | GI50 (OVCAR-4 ovarian): 0.23 µM | TGI (OVCAR-4 ovarian): 0.554 µM | GI50 (SF-295 CNS): 1.09 µM | TGI (SF-295 CNS): 2.44 µM | GI50 (NCI-H522 lung): 0.0631 µM | TGI (NCI-H522 lung): 0.157 µM | GI50 (DU-145 prostate): 6.09 µM | TGI (DU-145 prostate): 37.7 µM | GI50 (MALME-3M melanoma): 0.706 µM | TGI (MALME-3M melanoma): 3.16 µM | GI50 (ACHN renal): 0.831 µM | TGI (ACHN renal): 4.85 µM | GI50 (UACC-62 melanoma): 6.24 µM | TGI (UACC-62 melanoma): 21.6 µM | GI50 (A498 renal): 6.81 µM | TGI (A498 renal): 25.4 µM | GI50 (MDA-MB-231 breast): 1.24 µM | TGI (MDA-MB-231 breast): 7.51 µM | GI50 (K-562 leukemia): 21.3 µM | TGI (K-562 leukemia): > 70.4 µM | GI50 (T-47D breast): 18.9 µM | TGI (T-47D breast): 54.4 µM | GI50 (M14 melanoma): 24.6 µM | TGI (M14 melanoma): > 100 µM | GI50 (NCI-H23 lung): 2.26 µM | TGI (NCI-H23 lung): 12.3 µM | GI50 (SN12C renal): 22.7 µM | TGI (SN12C renal): > 100 µM | GI50 (SK-MEL-28 melanoma): 23.4 µM | TGI (SK-MEL-28 melanoma): 91.2 µM | GI50 (NCI/ADR-RES ovarian): 3.31 µM | TGI (NCI/ADR-RES ovarian): > 19.6 µM | GI50 (U251 CNS): 3.74 µM | TGI (U251 CNS): 17.8 µM | GI50 (SK-MEL-2 melanoma): 12.4 µM | TGI (SK-MEL-2 melanoma): 35.1 µM | GI50 (OVCAR-3 ovarian): 0.641 µM | TGI (OVCAR-3 ovarian): 1.62 µM | GI50 (RPMI-8226 leukemia): 2.06 µM | TGI (RPMI-8226 leukemia): 9.34 µM | GI50 (TK-10 renal): 16.9 µM | TGI (TK-10 renal): 39.9 µM | GI50 (HOP-62 NSCLC): 0.379 µM | TGI (HOP-62 NSCLC): 1.97 µM | GI50 (SF-539 CNS): 1.13 µM | TGI (SF-539 CNS): 2.68 µM | GI50 (SK-MEL-5 melanoma): 16 µM | TGI (SK-MEL-5 melanoma): 35.3 µM | GI50 (A549 NSCLC): 9.35 µM | TGI (A549 NSCLC): 44.7 µM | GI50 (HCC-2998 colon): 20.4 µM | TGI (HCC-2998 colon): 56 µM | GI50 (786-0 renal): 0.901 µM | TGI (786-0 renal): 3.1 µM | GI50 (NCI-H226 lung): 30.9 µM | TGI (NCI-H226 lung): > 89.2 µM | GI50 (SF-268 CNS): 0.931 µM | TGI (SF-268 CNS): 3.2 µM | GI50 (CAKI-1 renal): 0.482 µM | TGI (CAKI-1 renal): 2 µM | GI50 (IGROV1 ovarian): 0.121 µM | TGI (IGROV1 ovarian): 0.299 µM | GI50 (NCI-H460 lung): 13.5 µM | TGI (NCI-H460 lung): 48.5 µM | GI50 (HOP-92 NSCLC): 0.181 µM | TGI (HOP-92 NSCLC): 0.48 µM | GI50 (LOX IMVI melanoma): 0.191 µM | TGI (LOX IMVI melanoma): 0.406 µM | GI50 (MDA-MB-435): 15.6 µM | TGI (MDA-MB-435): 66.7 µM | GI50 (MCF7 breast): 14.2 µM | TGI (MCF7 breast): 43 µM
